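How tested: cells in 96-well plates exposed to compound for 48 hours at five concentrations. GI50: concentration for 50% inhibition of growth.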 The source made the active and inactive calls. Cut-off read from the data, not from the text of the source: active = GI50 up to about 1.1 µM and inactive = higher.
Tests used:
Assay in all cases: inhibition of tumour cell growth, NCI panel, 48 h
OVCAR-3 = system: OVCAR-3
SW-620 = system: SW-620
KM12 = system: KM12
HCC 2998 = system: HCC 2998
M14 = system: M14
HL-60 = system: HL-60
UACC-257 = system: UACC-257
IGROV-1 = system: IGROV-1
MDA-MB-435 = system: MDA-MB-435
COLO 205 = system: COLO 205
LOX IMVI = system: LOX IMVI
SK-OV-3 = system: SK-OV-3
MDA-MB-231 = system: MDA-MB-231
SF-295 = system: SF-295
NCI-H23 = system: NCI-H23
MDA-N = system: MDA-N
SN12C = system: SN12C
ACHN = system: ACHN
NCI-H522 = system: NCI-H522
SR = system: SR

Measured: GI50

CN(C)Cc1cc(C(=O)/C=C/c2c(F)cccc2Cl)cc(CN(C)C)c1O
inactive: OVCAR-3 9.18 µM | SW-620 9.57 µM | KM12 12.8 µM | HCC 2998 13.1 µM | M14 13.2 µM | HL-60 3.02 µM | UACC-257 11.4 µM | IGROV-1 5.47 µM | MDA-MB-435 13.8 µM | COLO 205 10.8 µM | LOX IMVI 4.83 µM | SK-OV-3 14.1 µM | MDA-MB-231 13.1 µM | SF-295 11.6 µM | NCI-H23 14.9 µM | MDA-N 13 µM | SN12C 4.57 µM | ACHN 3.9 µM

CC(C)C(C(=O)O)N1C(=O)c2ccccc2C1=O (stereo not drawn)
inactive: OVCAR-3 > 100 µM | SW-620 > 100 µM | KM12 > 100 µM | HCC 2998 > 100 µM | M14 > 100 µM | HL-60 > 100 µM | UACC-257 > 100 µM | IGROV-1 > 100 µM | NCI-H522 > 100 µM | MDA-MB-435 > 100 µM | COLO 205 > 100 µM | LOX IMVI > 100 µM | SK-OV-3 > 100 µM | MDA-MB-231 > 100 µM | SF-295 > 100 µM | NCI-H23 > 100 µM | MDA-N > 100 µM | SN12C > 100 µM | ACHN > 100 µM

CCCCOC(=O)C1CC[C@H]2[C@@H]3CCc4cc(OC(=O)c5cccc6c(=O)c7ccccc7[nH]c56)ccc4[C@H]3CC[C@]12C (stereo partly drawn)
inactive: OVCAR-3 8.47 µM | SW-620 12.4 µM | KM12 9.71 µM | HCC 2998 8.87 µM | M14 11.3 µM | HL-60 5.86 µM | UACC-257 8.47 µM | IGROV-1 8.13 µM | NCI-H522 9.64 µM | MDA-MB-435 8.63 µM | COLO 205 7.29 µM | LOX IMVI 8.83 µM | SK-OV-3 9.86 µM | MDA-MB-231 6.98 µM | SF-295 8.53 µM | NCI-H23 8.95 µM | MDA-N 7.83 µM | SN12C 8.45 µM | ACHN 8.69 µM

CSC1C(=O)Nc2ccc3ccccc3c21 (stereo not drawn)
inactive: SW-620 20.8 µM | KM12 18.6 µM | HCC 2998 > 100 µM | M14 23.1 µM | HL-60 1.54 µM | UACC-257 19 µM | IGROV-1 16.6 µM | NCI-H522 2.54 µM | MDA-MB-435 > 100 µM | COLO 205 22.9 µM | LOX IMVI 15.7 µM | SK-OV-3 > 100 µM | MDA-MB-231 23.2 µM | SF-295 > 100 µM | NCI-H23 > 100 µM | MDA-N 56.5 µM | SN12C 20.6 µM | ACHN 27.4 µM

C=C(C)[C@H]1CC[C@@]23O[C@@H]2[C@@H](C[C@@]2(C)CC(=O)[C@H](CC(=O)C1)O2)OC(=O)[C@@]12CC[C@H](C(=C)C)CC(=O)C[C@H]4O[C@](C)(CC4=O)C[C@@H](OC3=O)[C@@H]1O2 [SINGARDIN]
inactive: OVCAR-3 > 100 µM | KM12 52.5 µM | HCC 2998 > 100 µM | M14 > 100 µM | HL-60 > 100 µM | UACC-257 > 100 µM | IGROV-1 52.8 µM | NCI-H522 > 100 µM | MDA-MB-435 > 100 µM | COLO 205 > 100 µM | LOX IMVI > 100 µM | SK-OV-3 > 100 µM | MDA-MB-231 > 100 µM | SF-295 > 100 µM | NCI-H23 > 100 µM | MDA-N > 100 µM | SN12C > 100 µM | ACHN > 100 µM

Cn1c2c(c3ccccc31)CC(=S)N1CCCC(CC2O)C1 (stereo not drawn)
inactive: SW-620 > 100 µM | KM12 > 100 µM | HCC 2998 > 100 µM | UACC-257 > 100 µM | NCI-H522 > 100 µM | MDA-MB-435 > 100 µM | COLO 205 > 100 µM | LOX IMVI > 100 µM | SK-OV-3 > 100 µM | MDA-MB-231 > 100 µM | SF-295 > 100 µM | NCI-H23 > 100 µM | MDA-N > 100 µM | SN12C > 100 µM | ACHN > 100 µM

Cn1c2ccccc2n2c(=O)c3cccnc3c(C#N)c12
inactive: OVCAR-3 > 100 µM | SW-620 19.6 µM | KM12 > 100 µM | UACC-257 > 100 µM | NCI-H522 14.7 µM | MDA-MB-435 > 100 µM | COLO 205 24.7 µM | LOX IMVI 39.1 µM | SK-OV-3 > 100 µM | MDA-MB-231 > 100 µM | SF-295 > 100 µM | NCI-H23 33.3 µM | MDA-N > 100 µM | SN12C 25.5 µM | ACHN 31.1 µM

COc1cccc(/C=C/c2ccnc3ccccc23)c1OC
inactive: OVCAR-3 7.78 µM | SW-620 > 10 µM | KM12 > 10 µM | HCC 2998 > 10 µM | M14 > 10 µM | HL-60 > 10 µM | UACC-257 > 10 µM | IGROV-1 > 10 µM | NCI-H522 > 10 µM | MDA-MB-435 2.86 µM | COLO 205 > 10 µM | LOX IMVI 4.79 µM | SK-OV-3 > 10 µM | MDA-MB-231 > 10 µM | SF-295 > 10 µM | NCI-H23 9.66 µM | MDA-N 4.94 µM | SN12C > 10 µM | ACHN > 10 µM

Cn1c2ccccc2n2c3ncccc3c(=O)cc12
inactive: OVCAR-3 50.2 µM | SW-620 50 µM | KM12 71.9 µM | M14 64.3 µM | UACC-257 75 µM | IGROV-1 28.9 µM | NCI-H522 31.3 µM | MDA-MB-435 61.5 µM | COLO 205 60.4 µM | LOX IMVI 29.9 µM | SK-OV-3 > 100 µM | MDA-MB-231 96.8 µM | SF-295 45.1 µM | NCI-H23 43 µM | MDA-N 54.8 µM | SN12C 44.7 µM | ACHN 27 µM

C=CCCCN1C(=O)C2C3c4ccccc4C(C=O)(c4ccccc43)C2C1=O (stereo not drawn)
inactive: OVCAR-3 9.02 µM | SW-620 13 µM | KM12 4.02 µM | HCC 2998 14.7 µM | HL-60 9.89 µM | UACC-257 13 µM | SR 4.79 µM | IGROV-1 13.6 µM | NCI-H522 8.57 µM | COLO 205 12 µM | LOX IMVI 6.07 µM | SK-OV-3 18.2 µM | MDA-MB-231 9.42 µM | SF-295 9.91 µM | NCI-H23 12.4 µM | MDA-N 13.6 µM | SN12C 7.93 µM | ACHN 13.6 µM

O=C1CC(c2ccc[nH]2)=NN1c1ccccc1
inactive: OVCAR-3 > 100 µM | SW-620 > 100 µM | KM12 > 100 µM | M14 > 100 µM | HL-60 > 100 µM | UACC-257 > 100 µM | NCI-H522 > 100 µM | MDA-MB-435 > 100 µM | COLO 205 > 100 µM | LOX IMVI > 100 µM | SK-OV-3 > 100 µM | MDA-MB-231 > 100 µM | SF-295 > 100 µM | NCI-H23 > 100 µM | MDA-N > 100 µM | SN12C > 100 µM | ACHN > 100 µM

Reference: ChEMBL document CHEMBL1201862, “PubChem BioAssay data set” (2004)
